{
  "source": "patent US6569843B1",
  "about": "“Steroidal sapogenins for the control of coccidiosis in animals” (priority 1999, dated 2003)",
  "format_in_all_cases": "in vivo",
  "key": {"[1]": {"tested_on": "mixed culture of E. acervulina, E. maxima and E. tenella", "assay": "14 day coccidial challenge study, steroidal sapogenin and antibiotic compatibility in chicks (Example 5)", "conditions": "SS at 3.3 ppm where included, antibiotic doses not given; for Lesion Scores, Cecal / Lesion Scores, Middle / Lesion Scores, Upper: day 14"}, "[2]": {"tested_on": "mixture of E. acervulina, E. maxima and E. tenella", "assay": "8 day coccidial challenge study in broiler chicks, mortality, weight gain, feed efficiency (Example 4)"}, "[3]": {"tested_on": "E. acervulina", "assay": "8 day coccidial challenge study, upper lesion score (Example 4)", "conditions": "day 8"}, "[4]": {"tested_on": "E. maxima", "assay": "8 day coccidial challenge study, middle lesion score (Example 4)", "conditions": "day 8"}, "[5]": {"tested_on": "E. tenella", "assay": "8 day coccidial challenge study, cecal lesion score (Example 4)", "conditions": "day 8"}, "[6]": {"tested_on": "mixture of E. acervulina, E. maxima and E. tenella", "assay": "13 day coccidial challenge study in broiler chicks, weight and feed conversion (Example 3)", "text": "(§1) Birds were fed a standard corn soybean meal diet and water ad libitum. Birds were placed in 4 foot by 5 foot pens at the rate of 50 birds per pen. On day 6 all birds, except the negative control, were orally challenged with an inoculum comprised of a mixture of E. acervulina, E. maxima and E. tenella. Since each of these three specie of Eimeria produce intestinal lesions in distinctly different regions of the intestinal their effects can be partitioned when scoring the birds. On day 13 all birds were sacrificed by cervical dislocation and the intestines scored for coccidial lesions by the standard Johnson and Reid method."}, "[7]": {"tested_on": "E. acervulina", "assay": "13 day coccidial challenge study, upper intestinal lesion score (Example 3)", "conditions": "day 13", "text": "as §1"}, "[8]": {"tested_on": "E. maxima", "assay": "13 day coccidial challenge study, middle intestinal lesion score (Example 3)", "conditions": "day 13", "text": "as §1"}, "[9]": {"tested_on": "E. tenella", "assay": "13 day coccidial challenge study, cecal lesion score (Example 3)", "conditions": "day 13", "text": "as §1"}},
  "note": "Several values for one entry are separate records, joined by “and”; a condition that tells them apart may be missing. Equal values may be shown once.",
  "data": [
    {"molecule": "Bacitracin Zinc", "values": [
      {"measurement": "Feed/Gain", "setting": "[1]", "value": 1.833},
      {"measurement": "Weight, gm", "setting": "[1]", "value": 259.7, "unit": "gm"},
      {"measurement": "Lesion Scores, Cecal", "setting": "[1]", "value": 1.50},
      {"measurement": "Lesion Scores, Middle", "setting": "[1]", "value": 2.08},
      {"measurement": "Lesion Scores, Upper", "setting": "[1]", "value": 1.50}
    ]},
    {"molecule": "CO[C@@H]1[C@@H](OC)[C@H](C)[C@@](O)(CC(=O)O)O[C@H]1[C@H](C)[C@H]1O[C@@]2(CC[C@@](C)([C@H]3CC[C@@](C)([C@@H]4O[C@@H]([C@H]5O[C@](C)(O)[C@H](C)C[C@@H]5C)C[C@@H]4O[C@@H]4C[C@H](OC)[C@@H](OC)[C@H](C)O4)O3)O2)C[C@H](O)[C@H]1C", "note": "[Maduramicin]", "values": [
      {"measurement": "Feed/Gain", "setting": "[2]; 5 ppm, two different sources", "value": "1.8503 cd and 1.8463 cd"},
      {"measurement": "Mortality, %", "setting": "[2]; 5 ppm, two different sources", "value": "6.67 a % and 0 a %"},
      {"measurement": "Weight Gain, gm", "setting": "[2]; 5 ppm, two different sources", "value": "266.67 d gm and 269.33 d gm"},
      {"measurement": "Lesion Scores, Upper, E. acervulina", "setting": "[3]; 5 ppm, two different sources", "value": "2.1000 b and 2.3667 b"},
      {"measurement": "Lesion Scores, Middle, E. maxima", "setting": "[4]; 5 ppm, two different sources", "value": "2.2667 b and 2.3000 b"},
      {"measurement": "Lesion Scores, Cecal, E. tenella", "setting": "[5]; 5 ppm, two different sources", "value": "2.6000 bc and 2.3333 bc"}
    ]},
    {"molecule": "CC[C@@H](C(=O)[C@@H](C)[C@@H](O)[C@H](C)[C@@H]1O[C@@H]([C@@H](CC)C(=O)O)CC[C@@H]1C)[C@H]1O[C@]2(C=C[C@@H](O)[C@]3(CC[C@@](C)([C@H]4CC[C@](O)(CC)[C@H](C)O4)O3)O2)[C@H](C)C[C@@H]1C", "note": "[Salinomycin]", "values": [
      {"measurement": "Feed/Gain", "setting": "[6]; 60 g/ton", "value": 1.624},
      {"measurement": "Weight, gm (average bird weight)", "setting": "[6]; 60 g/ton", "value": 246.3, "unit": "gm"},
      {"measurement": "Average intestinal lesion score, Upper, acervulina", "setting": "[7]; 60 g/ton", "value": 0.76},
      {"measurement": "Average intestinal lesion score, Middle, maxima", "setting": "[8]; 60 g/ton", "value": 1.22},
      {"measurement": "Average intestinal lesion score, Cecal, tenella", "setting": "[9]; 60 g/ton", "value": 0.68},
      {"measurement": "Feed/Gain", "setting": "[2]; 60 gm/ton", "value": 1.8473, "unit": "cd"},
      {"measurement": "Mortality, %", "setting": "[2]; 60 gm/ton", "value": 6.67, "unit": "a %"},
      {"measurement": "Weight Gain, gm", "setting": "[2]; 60 gm/ton", "value": 269.67, "unit": "d gm"},
      {"measurement": "Lesion Scores, Upper, E. acervulina", "setting": "[3]; 60 gm/ton", "value": 2.1333, "unit": "b"},
      {"measurement": "Lesion Scores, Middle, E. maxima", "setting": "[4]; 60 gm/ton", "value": 2.9000, "unit": "bc"},
      {"measurement": "Lesion Scores, Cecal, E. tenella", "setting": "[5]; 60 gm/ton", "value": 2.9000, "unit": "bc"}
    ]},
    {"molecule": "CC[C@@]1([C@@H]2O[C@@H]([C@H]3O[C@@](O)(CO)[C@H](C)C[C@@H]3C)C[C@@H]2C)CC[C@H]([C@]2(C)CC[C@]3(C[C@H](O)[C@@H](C)[C@@H]([C@@H](C)[C@@H](OC)[C@H](C)C(=O)O)O3)O2)O1", "note": "[Monensin]", "values": [
      {"measurement": "Feed/Gain", "setting": "[6]; 100 g/ton", "value": 1.843},
      {"measurement": "Weight, gm (average bird weight)", "setting": "[6]; 100 g/ton", "value": 233.0, "unit": "gm"},
      {"measurement": "Average intestinal lesion score, Upper, acervulina", "setting": "[7]; 100 g/ton", "value": 1.40},
      {"measurement": "Average intestinal lesion score, Middle, maxima", "setting": "[8]; 100 g/ton", "value": 1.58},
      {"measurement": "Average intestinal lesion score, Cecal, tenella", "setting": "[9]; 100 g/ton", "value": 1.64},
      {"measurement": "Feed/Gain", "setting": "[2]; 90 gm/ton", "value": 1.9033, "unit": "cd"},
      {"measurement": "Mortality, %", "setting": "[2]; 90 gm/ton", "value": 3.33, "unit": "a %"},
      {"measurement": "Weight Gain, gm", "setting": "[2]; 90 gm/ton", "value": 258.67, "unit": "d gm"},
      {"measurement": "Lesion Scores, Upper, E. acervulina", "setting": "[3]; 90 gm/ton", "value": 1.9667, "unit": "b"},
      {"measurement": "Lesion Scores, Middle, E. maxima", "setting": "[4]; 90 gm/ton", "value": 2.4333, "unit": "bc"},
      {"measurement": "Lesion Scores, Cecal, E. tenella", "setting": "[5]; 90 gm/ton", "value": 2.9667, "unit": "bc"}
    ]},
    {"molecule": "Virginiamycin", "values": [
      {"measurement": "Feed/Gain", "setting": "[1]", "value": 1.891},
      {"measurement": "Weight, gm", "setting": "[1]", "value": 256.3, "unit": "gm"},
      {"measurement": "Lesion Scores, Cecal", "setting": "[1]", "value": 1.17},
      {"measurement": "Lesion Scores, Middle", "setting": "[1]", "value": 1.58},
      {"measurement": "Lesion Scores, Upper", "setting": "[1]", "value": 1.17}
    ]}
  ]
}
